This passage reports MIC and Activity results from ChEMBL document CHEMBL4000181, “Synthesis and biological screening of novel 2-morpholinoquinoline nucleus clubbed with 1,2,4-oxadiazole motifs” (Eur J Med Chem, 2017).

Converted amounts (≈) assume the structure as drawn.

One series deals with Salmonella typhi. In words: Antibacterial activity against Salmonella typhi MTCC 98 after 24 to 48 hrs by broth microdilution method. It counts as functional, Salmonella enterica subsp. enterica serovar Typhi. The settings on record: Salmonella enterica. (Broth dilution looks for growth in wells or tubes with falling amounts of substance.)
A further series has as its system Clostridium tetani. As to the kind of experiment: Antibacterial activity against Clostridium tetani MTCC 449 after 24 to 48 hrs by broth microdilution method. Format: functional.
Another series relates to Streptococcus pneumoniae. As to the kind of experiment: Antibacterial activity against Streptococcus pneumoniae MTCC 1936 after 24 to 48 hrs by broth microdilution method. Format: functional.
In the next series the test system is Vibrio cholerae. As to the kind of experiment: Antibacterial activity against Vibrio cholerae MTCC 3906 after 24 to 48 hrs by broth microdilution method. It counts as functional.
In another series the test system is Escherichia coli. As to the kind of experiment: Antibacterial activity against Escherichia coli MTCC 443 after 24 to 48 hrs by broth microdilution method. Format: functional.
The test system of the next series is Bacillus subtilis. As to the kind of experiment: Antibacterial activity against Bacillus subtilis MTCC 441 after 24 to 48 hrs by broth microdilution method. Format: functional.
Another series concerns Aspergillus fumigatus. As to the kind of experiment: Antifungal activity against Aspergillus fumigatus MTCC 3008 after 24 to 48 hrs by broth microdilution method. It counts as functional.
The test system of series [1] is Schizosaccharomyces pombe. As to the kind of experiment: Toxicity in Schizosaccharomyces pombe Var. Paul Linder 3360 assessed as dead cells at 2.5 to 12.5 ug/ml after 17 hrs by trypan blue dye-based microscopic method.
In another series the test system is Candida albicans. In words: Antifungal activity against Candida albicans MTCC 227 after 24 to 48 hrs by broth microdilution method. It counts as functional.

In general, MIC refers to the lowest concentration found to suppress growth. Take `CCn1cc(C(=O)O)c(=O)c2cc(F)c(N3CCNCC3)cc21` [NORFLOXACIN]: the minimum inhibitory concentration (MIC) against Salmonella typhi, with Clostridium tetani, with Streptococcus pneumoniae, with Vibrio cholerae, in the series on Escherichia coli and with Bacillus subtilis was 154 µM (≈ 49.2 µg/mL) in each case.
Regarding `Cc1ccc2nc(N3CCOCC3)c(-c3noc(-c4ccc(C(F)(F)F)cc4)n3)cc2c1`, the minimal inhibitory concentration (MIC) against Salmonella typhi was found to be 454 µM (≈ 200 µg/mL); with Aspergillus fumigatus, 1140 µM (≈ 500 µg/mL); in the series on Clostridium tetani, 568 µM (≈ 250 µg/mL); against Streptococcus pneumoniae it was 454 µM (≈ 200 µg/mL); against Vibrio cholerae it was 227 µM (≈ 100 µg/mL); against Escherichia coli, 227 µM (≈ 100 µg/mL). For the same compound, the MIC with Candida albicans was determined as 568 µM (≈ 250 µg/mL); with Bacillus subtilis, 454 µM (≈ 200 µg/mL). For the same compound, the Activity result in series [1] is reported as “Non-Toxic”.
In the case of `O=C(O)c1cn(C2CC2)c2cc(N3CCNCC3)c(F)cc2c1=O` [CIPROFLOXACIN], the MIC against Salmonella typhi turned out to be 31 µM (≈ 10.3 µg/mL); against Streptococcus pneumoniae, 31 µM (≈ 10.3 µg/mL); with Vibrio cholerae, 31 µM (≈ 10.3 µg/mL); in the series on Escherichia coli, 31 µM (≈ 10.3 µg/mL); in the series with Bacillus subtilis, 310 µM (≈ 103 µg/mL).
In the case of `O=[N+]([O-])c1ccc(-c2nc(-c3cc4ccccc4nc3N3CCOCC3)no2)cc1`, the MIC with Salmonella typhi came out at 155 µM (≈ 62.5 µg/mL); against Aspergillus fumigatus, 248 µM (≈ 100 µg/mL); in the series with Clostridium tetani it was 155 µM (≈ 62.5 µg/mL); against Streptococcus pneumoniae it was 248 µM (≈ 100 µg/mL); against Vibrio cholerae it was 620 µM (≈ 250 µg/mL); with Escherichia coli it was 620 µM (≈ 250 µg/mL). The MIC against Candida albicans came out at 1130 µM (≈ 456 µg/mL); with Bacillus subtilis, 155 µM (≈ 62.5 µg/mL). Moreover, the Activity entry in series [1] was “Toxic”.
With `FC(F)(F)c1cccc(-c2nc(-c3cc4ccccc4nc3N3CCOCC3)no2)c1`, the MIC is 146 µM (≈ 62.3 µg/mL) in the series with Salmonella typhi; 234 µM (≈ 99.8 µg/mL) against Aspergillus fumigatus; 469 µM (≈ 200 µg/mL) with Clostridium tetani; 234 µM (≈ 99.8 µg/mL) with Streptococcus pneumoniae; 234 µM (≈ 99.8 µg/mL) in the series on Vibrio cholerae; 234 µM (≈ 99.8 µg/mL) against Escherichia coli. Besides, the MIC against Candida albicans is 1130 µM (≈ 482 µg/mL); against Bacillus subtilis, 234 µM (≈ 99.8 µg/mL).
Regarding NYSTATIN, the MIC in the series on Aspergillus fumigatus and in the series on Candida albicans was 107 µM throughout.
`CC1(C)S[C@@H]2[C@H](NC(=O)[C@H](N)c3ccccc3)C(=O)N2[C@H]1C(=O)O` [AMPICILLIN]: the MIC in the series with Salmonella typhi is 286 µM (≈ 99.9 µg/mL); in the series on Clostridium tetani, 715 µM (≈ 250 µg/mL); against Streptococcus pneumoniae it was 286 µM (≈ 99.9 µg/mL); against Vibrio cholerae, 286 µM (≈ 99.9 µg/mL); against Escherichia coli it was 286 µM (≈ 99.9 µg/mL); against Bacillus subtilis, 715 µM (≈ 250 µg/mL).
For `Cc1ccc2nc(N3CCOCC3)c(-c3noc(-c4ccc(Br)cc4)n3)cc2c1`, the MIC against Salmonella typhi was 443 µM (≈ 200 µg/mL); against Aspergillus fumigatus it was 1110 µM (≈ 500 µg/mL); against Clostridium tetani, 221 µM (≈ 99.7 µg/mL); against Streptococcus pneumoniae, 221 µM (≈ 99.7 µg/mL); against Vibrio cholerae, 554 µM (≈ 250 µg/mL); in the series on Escherichia coli, 138 µM (≈ 62.3 µg/mL). The MIC in the series with Candida albicans was determined as 2340 µM (≈ 1060 µg/mL); in the series on Bacillus subtilis, 1110 µM (≈ 500 µg/mL).
As to `Cc1ccc2nc(N3CCOCC3)c(-c3noc(-c4ccc(Cl)cc4)n3)cc2c1`, the MIC in the series with Salmonella typhi worked out at 246 µM (≈ 100 µg/mL); in the series with Aspergillus fumigatus, 246 µM (≈ 100 µg/mL); with Clostridium tetani, 200 µM (≈ 81.4 µg/mL); with Streptococcus pneumoniae, 246 µM (≈ 100 µg/mL); against Vibrio cholerae it was 153 µM (≈ 62.3 µg/mL); in the series with Escherichia coli, 153 µM (≈ 62.3 µg/mL). In addition, the MIC is 246 µM (≈ 100 µg/mL) in the series on Candida albicans and 153 µM (≈ 62.3 µg/mL) in the series on Bacillus subtilis. In addition, the Activity entry in [1] is recorded as “Toxic”.
For `Clc1ccc(-c2nc(-c3cc4ccccc4nc3N3CCOCC3)no2)cc1`, the MIC in the series with Salmonella typhi is 255 µM (≈ 100 µg/mL); against Aspergillus fumigatus, 255 µM (≈ 100 µg/mL); against Clostridium tetani it was 159 µM (≈ 62.5 µg/mL); in the series with Streptococcus pneumoniae, 159 µM (≈ 62.5 µg/mL); against Vibrio cholerae, 255 µM (≈ 100 µg/mL); against Escherichia coli, 510 µM (≈ 200 µg/mL). Also, the results for the MIC with Candida albicans and against Bacillus subtilis were 637 µM (≈ 250 µg/mL) and 255 µM (≈ 100 µg/mL), respectively. The Activity entry in [1] was “Toxic”.
In the case of `FC(F)(F)c1ccc(-c2nc(-c3cc4ccccc4nc3N3CCOCC3)no2)cc1`, the minimum inhibitory concentration (MIC) against Salmonella typhi turned out to be 146 µM (≈ 62.3 µg/mL); against Aspergillus fumigatus, 146 µM (≈ 62.3 µg/mL); against Clostridium tetani it was 146 µM (≈ 62.3 µg/mL); against Streptococcus pneumoniae, 146 µM (≈ 62.3 µg/mL); against Vibrio cholerae it was 586 µM (≈ 250 µg/mL); against Escherichia coli it was 586 µM (≈ 250 µg/mL). In addition, the results for the MIC against Candida albicans and in the series on Bacillus subtilis were 2350 µM (≈ 1000 µg/mL) and 146 µM (≈ 62.3 µg/mL), respectively.
With `COc1ccc(-c2nc(-c3cc4cc(C)ccc4nc3N3CCOCC3)no2)cc1`, the MIC against Salmonella typhi turned out to be 248 µM (≈ 99.8 µg/mL); in the series on Aspergillus fumigatus it was 2490 µM (≈ 1000 µg/mL); with Clostridium tetani it was 621 µM (≈ 250 µg/mL); with Streptococcus pneumoniae, 310 µM (≈ 125 µg/mL); in the series with Vibrio cholerae, 497 µM (≈ 200 µg/mL); against Escherichia coli, 497 µM (≈ 200 µg/mL). Moreover, the MIC in the series with Candida albicans came out at 1240 µM (≈ 500 µg/mL); against Bacillus subtilis it was 621 µM (≈ 250 µg/mL).
With `COC1=CC(=O)C[C@@H](C)[C@]12Oc1c(Cl)c(OC)cc(OC)c1C2=O` [GRISEOFULVIN], the MIC with Aspergillus fumigatus amounted to 283 µM (≈ 99.8 µg/mL); in the series on Candida albicans it was 1150 µM (≈ 405 µg/mL).
As for `Cc1ccc2nc(N3CCOCC3)c(-c3noc(-c4ccccc4)n3)cc2c1`, the minimal inhibitory concentration (MIC) was found to be 1340 µM (≈ 501 µg/mL) in the series with Salmonella typhi; 1340 µM (≈ 501 µg/mL) with Aspergillus fumigatus; 268 µM (≈ 99.8 µg/mL) against Clostridium tetani; 672 µM (≈ 250 µg/mL) against Streptococcus pneumoniae; 268 µM (≈ 99.8 µg/mL) against Vibrio cholerae; 672 µM (≈ 250 µg/mL) in the series on Escherichia coli. The minimal inhibitory concentration (MIC) against Candida albicans worked out at 2690 µM (≈ 1000 µg/mL); in the series on Bacillus subtilis, 1340 µM (≈ 501 µg/mL).
With `c1ccc(-c2nc(-c3cc4ccccc4nc3N3CCOCC3)no2)cc1`, the MIC against Salmonella typhi stood at 1400 µM (≈ 500 µg/mL); with Aspergillus fumigatus, 1400 µM (≈ 500 µg/mL); against Clostridium tetani, 1400 µM (≈ 500 µg/mL); against Streptococcus pneumoniae, 698 µM (≈ 250 µg/mL); in the series with Vibrio cholerae it was 1400 µM (≈ 500 µg/mL); in the series with Escherichia coli, 279 µM (≈ 100 µg/mL). In addition, the MIC against Candida albicans was 2790 µM (≈ 1000 µg/mL); in the series with Bacillus subtilis, 1400 µM (≈ 500 µg/mL).
With `Brc1ccc(-c2nc(-c3cc4ccccc4nc3N3CCOCC3)no2)cc1`, the minimum inhibitory concentration (MIC) amounted to 228 µM (≈ 99.7 µg/mL) against Salmonella typhi; 2290 µM (≈ 1000 µg/mL) with Aspergillus fumigatus; 572 µM (≈ 250 µg/mL) with Clostridium tetani; 286 µM (≈ 125 µg/mL) in the series with Streptococcus pneumoniae; 228 µM (≈ 99.7 µg/mL) in the series on Vibrio cholerae; 572 µM (≈ 250 µg/mL) with Escherichia coli. For the same compound, the MIC in the series with Candida albicans came out at 1120 µM (≈ 488 µg/mL); in the series with Bacillus subtilis, 457 µM (≈ 200 µg/mL). For the same compound, the Activity entry in series [1] is “Non-Toxic”.
Turning to `Cc1ccc2nc(N3CCOCC3)c(-c3noc(-c4ccc([N+](=O)[O-])cc4)n3)cc2c1`, the MIC against Salmonella typhi is 599 µM (≈ 250 µg/mL); with Aspergillus fumigatus, 1200 µM (≈ 500 µg/mL); in the series on Clostridium tetani, 149 µM (≈ 62.2 µg/mL); in the series with Streptococcus pneumoniae, 149 µM (≈ 62.2 µg/mL); with Vibrio cholerae it was 239 µM (≈ 99.8 µg/mL); against Escherichia coli, 239 µM (≈ 99.8 µg/mL). In addition, the MIC against Candida albicans was found to be 1140 µM (≈ 476 µg/mL); against Bacillus subtilis it was 239 µM (≈ 99.8 µg/mL). Also, in [1], the Activity entry is “Toxic”.
Turning to `COc1ccc(-c2nc(-c3cc4ccccc4nc3N3CCOCC3)no2)cc1`, the MIC in the series on Salmonella typhi turned out to be 515 µM (≈ 200 µg/mL); against Aspergillus fumigatus it was 2580 µM (≈ 1000 µg/mL); with Clostridium tetani it was 1290 µM (≈ 500 µg/mL); with Streptococcus pneumoniae, 1290 µM (≈ 500 µg/mL); in the series with Vibrio cholerae, 644 µM (≈ 250 µg/mL); in the series with Escherichia coli, 257 µM (≈ 99.8 µg/mL). Moreover, the minimum inhibitory concentration (MIC) is 2580 µM (≈ 1000 µg/mL) with Candida albicans and 257 µM (≈ 99.8 µg/mL) in the series with Bacillus subtilis. In addition, the Activity result in series [1] is “Non-Toxic”.
Consider `O=C(N[C@H](CO)[C@H](O)c1ccc([N+](=O)[O-])cc1)C(Cl)Cl` [CHLORAMPHENICOL], for which the minimal inhibitory concentration (MIC) with Salmonella typhi worked out at 75 µM (≈ 24.2 µg/mL); with Clostridium tetani, 301 µM (≈ 97.3 µg/mL); with Streptococcus pneumoniae, 150 µM (≈ 48.5 µg/mL); in the series on Vibrio cholerae it was 75 µM (≈ 24.2 µg/mL); against Escherichia coli, 75 µM (≈ 24.2 µg/mL); with Bacillus subtilis, 150 µM (≈ 48.5 µg/mL).
`Cc1ccc2nc(N3CCOCC3)c(-c3noc(-c4cccc(C(F)(F)F)c4)n3)cc2c1`: the MIC in the series with Salmonella typhi came out at 568 µM (≈ 250 µg/mL); in the series with Aspergillus fumigatus it was 1140 µM (≈ 500 µg/mL); against Clostridium tetani, 1140 µM (≈ 500 µg/mL); against Streptococcus pneumoniae it was 227 µM (≈ 100 µg/mL); with Vibrio cholerae, 568 µM (≈ 250 µg/mL); against Escherichia coli it was 454 µM (≈ 200 µg/mL). Further, the minimum inhibitory concentration (MIC) in the series on Candida albicans stood at 2270 µM (≈ 1000 µg/mL); with Bacillus subtilis, 568 µM (≈ 250 µg/mL). In addition, in series [1], the Activity entry is listed as “Non-Toxic”.
